# Values joined by “and” are separate entries in the source; they are usually repeats but may differ in a detail not shown here. Equal entries are not always repeated. Numbered stars: 1 amine (or outer) side, 2 acyl side, 3 side chain; on linkers, the order of the positions; unused ones are H or OH. Bridge positions count the residues as written; N and C are the ends. Square brackets hold non-standard residues; d marks the D form. Peptide text beside a SMILES is read from it. * marks the point of attachment. C18 diacid = O=C(O)CCCCCCCCCCCCCCCCC(=O)*; γGlu = O=C(O)[C@H](CCC(=O)[*:2])N[*:1]; Aad = N[C@@H](CCCC(=O)O)C(=O)O; AEEA = NCCOCCOCC(=O)O
# Legend:
# [1] = test system: TRAMPC-1 mouse prostate cancer cells; test: Prostate cancer subcutaneous model, treatment from day 19, tumor size; format: in vivo, mice
# Description: (§1) In this study, male C57BL/6J mice (6 weeks old, male, n=10) were purchased from Kyodo (Saga, Japan) and maintained under a 12-hour light/12-hour dark cycle with free access to water and standard mouse diet (MF diet; Oriental Yeast Co., Ltd. Tokyo Japan). Mice were implanted with TRAMPC-1 mouse prostate cancer cells (1,000,000 cells/mouse) (ATCC, Manassas, Va.) in the subcutaneous. From the 19th day (averaged tumor size was 70 mm3), mice were treated with a bolus dose of long acting CNP derivative or dCNP (described in Example 1) (0.3 mg/kg s.c. or 1.0 mg/kg s.c.) in buffer [Methionine 100 mM (Tokyo Chemical Industry Co., Ltd., Tokyo, Japan); Sucrose 100 mM (Tokyo Chemical Industry Co., Ltd.); Histidine 50 mM (Tokyo Chemical Industry Co., Ltd.); in H2O (Otsuka Pharmaceutical. Tokushima, Japan)], Docetaxel (DTX1 mg/kg i.p.) in Saline, all with or without anti-CD8 (5 mg/Kg i.p.; BioX cell; West Lebanon, N.H.) or Phosphate buffered saline (PBS) alone via i.p. All Docetaxel groups were used as mechanism of action comparator chemotherapeutic agent. Mice were treated total of two weeks (5 days of once daily, 2 days of rest, 5 days of once-daily treatment and 2 days rest). Anti-CD8 Ab was administered every 3 days starting day 19th. Tumor sizes were measured with caliper.
# [2] = test system: TRAMPC-1 mouse prostate cancer cells; test: Prostate cancer subcutaneous model, treatment from day 6, tumor size; format: in vivo, mice; settings: Anti-CD8 Ab 5 mg/kg i.p.
# Description: In this study, male C57BL/6J mice (6 weeks old, male, n=10) were purchased from Kyodo (Saga, Japan) and maintained under a 12-hour light/12-hour dark cycle with free access to water and standard mouse diet (MF diet; Oriental Yeast Co., Ltd. Tokyo Japan). Mice were implanted with TRAMPC-1 mouse prostate cancer cells (1,000,000 cells/mouse) (ATCC, Manassas, Va.) in the subcutaneous. From the 6th day (early stage of tumor growth), mice were treated with a bolus dose of dCNP (described in Example 1) (0.3 mg/kg s.c. or 1.0 mg/kg s.c.) with or without Anti-CD8 antibody (a-CD8; 5 mg/Kg i.p.; BioX cells, West Lebanon, N.H.) in buffer containing Methionine 100 mM (Tokyo Chemical Industry Co., Ltd., Tokyo, Japan); Sucrose 100 mM (Tokyo Chemical Industry Co., Ltd.); Histidine 50 mM (Tokyo Chemical Industry Co., Ltd.); in H2O (Otsuka Pharmaceutical, Tokushima, Japan)], Docetaxel (1 mg/kg i.p.) in Saline with or without Anti-CD8 Ab (5 mg/kg i.p.) as reference control, and or with Phosphate buffered saline (PBS) alone via i.p. as control. Mice were treated total of 14 days (5 days of once daily, 2 days of rest, 5 days of once-daily treatment and 2 days rest). Anti-CD8 Ab (a-CD8) was administered on −2, 1, 4, 7, 10 and 13th day. Tumor sizes were measured with caliper. Statistical analysis was performed by Student t-tests by using GraphPad Prism *P<0.0001 vs. Control or a-CD8 group (n=10). […]
# [3] = test system: TRAMPC-1 mouse prostate cancer cells; test: Gene expression within prostate tumor (quantitative RT-PCR); format: in vivo, mice; settings: tumor harvested at day 30
# Description: as §1, with “Pharmaceutical,” for “Pharmaceutical.”, “(DTX 1” for “(DTX1”, “for 2” for “total of two”, “was harvested at day 30 and extracted RNA, then Quantitative RT-PCR was performed; error bars are SEM. Statistical analysis was performed by Student t-tests by using GraphPad Prism *P<0.05 or **P<0.01 vs. Control group (n=3-6).” for “sizes were measured with caliper.”
# [4] = Pharmacokinetic study: plasma CNP (ELISA) after subcutaneous bolus in CD-1 mice; settings: subcutaneous 2.0 mg/Kg, FIG. 1A
# Description: All test articles were formulated or dissolved in 100 mM sorbitol, 100 mM methionine, 20 mM histidine, pH 6.0. […] Blood samples were processed in K2EDTA tubes to obtain plasma. Plasma was analyzed by commercially available CNP ELISA kit from Phoenix Pharmaceuticals (cat #EKE-012-03). […] [SEQ ID NO. 6]. […] The details of the polymer are described in Castillo et al., Pharm. Res., (2012) 29(1); p 306-18, herein incorporated by reference in its entirety.
# Error bars represent standard deviation of n=5 plasma samples.
# [5] = bolus injection, healthy human volunteers; cited from earlier work
# [6] = species not stated; cited from earlier work
# [7] = Pharmacokinetic study of dCNP-s1 and dCNP-s2: plasma CNP after subcutaneous bolus in CD-1 mice; format: in vivo; settings: subcutaneous bolus 2.0 mg/Kg, FIG. 30
# Description: For this pharmacokinetic study, all animals (mice) for this study were maintained under a 12-hour light/12-hour dark cycle with free access to water and standard mouse diet (Lab Pico Rodent #5053; Animal Specialties, Woodburn, Oreg.). Male CD-1 mice (6-8 weeks old; Charles River, Hollister, Calif.) were treated with 2.0 mg/Kg of CNP derivative s1 (dCNP-s1; PharmaIN Corp, Bothell, Wash.), and CNP derivative s2 (dCNP-s2: PharmaIN Corp, Bothell, Wash.) via subcutaneous bolus administration between the shoulder blades.
# [8] = Immune activation in normal healthy mice (blood FACS, spleen gene expression); format: in vivo; settings: normal healthy mice, 0.1, 0.3, 1.0 mg/kg s.c. day 1-5
# Description: In this study, male C57BL/6J mice (6 weeks old n=3) were purchased from Kyodo (Saga, Japan) and maintained under a 12-hour light/12-hour dark cycle with free access to water and standard mouse diet (MF diet; Oriental Yeast Co., Ltd. Tokyo Japan). Mice were treated with a bolus dose of 0, 0.1, 0.3, and 1.0 mg/kg CNP derivative or dCNP (described in Example 1) in buffer (Methionine 100 mM (Tokyo Chemical Industry Co., Ltd., Tokyo, Japan), sucrose 100 mM (Tokyo Chemical Industry Co., Ltd.), histidine 50 mM (Tokyo Chemical Industry Co., Ltd.); in H2O (Otsuka Pharmaceutical, Tokushima, Japan)) or buffer alone (for control group). Administration is by bolus subcutaneous injection under isoflurane anesthesia, at day 1, 2, 3, 4, and 5. Blood was harvested on day 5 under the isoflurane vapor and plasma were obtained by added EDTA and red blood cells were removed by pharma lyse (BD, Franklin Lakes, N.J.). Cells were analyzed by FACS (BD, Franklin lakes, NJ). The spleen was harvested on day 5 under isoflurane vapor, then placed in the Tri reagent (Cosmobio, Tokyo, Japan) for further analysis. Statistical analysis was performed by Student t-tests by using GraphPad Prism *P<0.05 vs. Control. **P<0.01 vs Control (n=5).
structure (smiles),measurement,setting,value
CC(=O)O[C@@]12CO[C@@H]1C[C@H](O)[C@@]1(C)C(=O)[C@H](O)C3=C(C)[C@@H](OC(=O)[C@H](O)[C@@H](NC(=O)OC(C)(C)C)c4ccccc4)C[C@@](O)([C@@H](OC(=O)c4ccccc4)[C@H]21)C3(C)C [Docetaxel],anti-tumor effect with anti-CD8 antibody,[1]; anti-CD8 5 mg/Kg i.p.,could not be neutralized by Anti-CD8
same,tumor growth suppressing effect in the presence of Anti-CD8 antibody,[2],remained
same,Ang 2 gene expression within the prostate tumor,[3],not
same,TGFβ gene expression within the prostate tumor,[3],not
same,alpha-smooth muscle actin (α-SMA) gene expression within the prostate tumor,[3],not
CC[C@H](C)[C@@H]1NC(=O)[C@H](CCCNC(=N)N)NC(=O)[C@H](CC(=O)O)NC(=O)[C@H](CC(C)C)NC(=O)[C@H](CCCCN)NC(=O)[C@H](CC(C)C)NC(=O)CNC(=O)[C@H](Cc2ccccc2)NC(=O)[C@@H](NC(=O)CNC(=O)[C@H](CCCCN)NC(=O)[C@H](CO)NC(=O)[C@H](CC(C)C)NC(=O)CN)CSSC[C@@H](C(=O)O)NC(=O)CNC(=O)[C@H](CC(C)C)NC(=O)CNC(=O)[C@H](CO)NC(=O)[C@H](CCSC)NC(=O)[C@H](CO)NC(=O)CNC1=O [native CNP],plasma CNP,[4],low plasma level
same,heart rate,[5],significant increase
same,systolic and diastolic blood pressure,[5],significant decrease
same,half-life,[6],2 to 13 min and 2 min
CC[C@H](C)[C@@H]1NC(=O)[C@H](CCCNC(=N)N)NC(=O)[C@H](CC(=O)O)NC(=O)[C@H](CC(C)C)NC(=O)[C@H](CCCCN)NC(=O)[C@H](CC(C)C)NC(=O)CNC(=O)[C@H](Cc2ccccc2)NC(=O)[C@@H](NC(=O)CNC(=O)COCCOCCNC(=O)COCCOCCNC(=O)CC[C@H](NC(=O)CCCCCCCCCCCCCCCCC(=O)O)C(=O)O)CSSC[C@@H](C(=O)O)NC(=O)CNC(=O)[C@H](CC(C)C)NC(=O)CNC(=O)[C@H](CO)NC(=O)[C@H](CCCC(N)=O)NC(=O)[C@H](CO)NC(=O)CNC1=O [dCNP-s2] ({C18 diacid-γGlu-AEEA-AEEA}-GCFGLKLDRIGS[Aad](NH2)SGLGC-OH; disulfide 2-18),blood level of CNP relative to native CNP at similar weight/Kg dose,[7],10 fold
CCCCCCCCCCCCCCCCCC(=O)N[C@@H](CCCCN)C(=O)N[C@@H](CCCCN)C(=O)N[C@@H](CCCCN)C(=O)N[C@@H](CCCCN)C(=O)NCC(=O)NCC(=O)NCC(=O)NCC(=O)N[C@@H](CC(C)C)C(=O)N[C@@H](CO)C(=O)N[C@@H](CCCCN)C(=O)NCC(=O)N[C@H]1CSSC[C@@H](C(=O)O)NC(=O)CNC(=O)[C@H](CC(C)C)NC(=O)CNC(=O)[C@H](CO)NC(=O)[C@H](CCSC)NC(=O)[C@H](CO)NC(=O)CNC(=O)[C@H]([C@@H](C)CC)NC(=O)[C@H](CCCNC(=N)N)NC(=O)[C@H](CC(=O)O)NC(=O)[C@H](CC(C)C)NC(=O)[C@H](CCCCN)NC(=O)[C@H](CC(C)C)NC(=O)CNC(=O)[C@H](Cc2ccccc2)NC1=O [dCNP],cytotoxic (CD8) T-cells in blood,[8],increase
same,lethality,[1]; TRAMPC-1 tumor bearing mice,less lethal than cytotoxic chemotherapeutic agent (Docetaxel)
CC[C@H](C)[C@@H]1NC(=O)[C@H](CCCNC(=N)N)NC(=O)[C@H](CC(=O)O)NC(=O)[C@H](CC(C)C)NC(=O)[C@H](CCCCN)NC(=O)[C@H](CC(C)C)NC(=O)CNC(=O)[C@H](Cc2ccccc2)NC(=O)[C@@H](NC(=O)CNC(=O)COCCOCCNC(=O)COCCOCCNC(=O)CCCCCCCCCCCCCCCCC(=O)O)CSSC[C@@H](C(=O)O)NC(=O)CNC(=O)[C@H](CC(C)C)NC(=O)CNC(=O)[C@H](CO)NC(=O)[C@H](CCCC(N)=O)NC(=O)[C@H](CO)NC(=O)CNC1=O [dCNP-s1] ({C18 diacid-AEEA-AEEA}-GCFGLKLDRIGS[Aad](NH2)SGLGC-OH; disulfide 2-18),blood level of CNP relative to native CNP at similar weight/Kg dose,[7],10 fold

# — US20230241164A1, “C-Type Natriuretic Peptides and Methods Thereof in Treating Cancer” (PHARMAIN CORPORATION, priority 2020, published 2023)
